According to US12202844B2, “MAP4K1 inhibitors” (Blueprint Medicines Corporation, priority 2021, dated 2025):
Read-outs that look alike come from different tables or passages of the source.

Legend:
[1] = test system: Primary T Cell (expanded CD3+ T cells); test: T cell enhancement of cytokines: IL2 measurement (HTRF) in stimulated expanded CD3+ T cells; format: cell-based, human; conditions: plate-bound anti-CD3 and soluble anti-CD28, 24 h, IL2 by HTRF, read-out: IL-2 Primary T Cell EC50
Experimental: T cells are isolated from whole blood of healthy donors by immunomagnetic negative selection following manufacture's protocol (StemCell Technologies, human T cell isolation kit). Purity of isolated cells is assessed by flow cytometry and yields 95-98% CD3^+ T cells. For expansion of T cells, 1×10^6 cells/well are plated in serum free cell expansion media (ThermoFisher) containing 30 U of recombinant human IL2 (R&D) and stimulated with 25 ul of CD3/CD28 beads (Invitrogen) in 24 well plates for 3-4 days. T cells are then expanded in 175 cm flasks and maintained at a cell density of 1 to 2.5×10^6 cells/ml days by addition of ⅔ of fresh media every 2-3 days. After 10-14 days, cells are frozen in BamBanker freezing media (Thermo) and stored in liquid nitrogen.
For IL2 measurement, expanded CD3^+ T cells are dispensed at 100K cells/well (cultured in X-VIVO 10 Serum-free media) and are stimulated with plate-bound anti-CD3 and soluble anti-CD28 in the presence of vehicle or compound of the disclosure at various concentrations for 24 h. As outlined in the manufacturer's protocol (Cisbio), 16 μL of conditioned media is transferred to a white 384-well low volume plate. Following a 24 h incubation with the anti-IL2 antibodies, the homogenous time resolved fluorescence (HTRF) is measured.

[2] = target: T1, MAP4K1 (HPK1) (Homo sapiens, UniProt Q92918); test: Inhibition of MAP4K1 biochemical enzymatic activity (EZReader 2 electrophoretic mobility shift); conditions: HPK1 (Invitrogen), S6K2tide 1.5 μM, 120 min; ATP 26 μM or 1000 μM (not given)
T1 construct: purchased Invitrogen
T1 sequence (Q92918 whole entry): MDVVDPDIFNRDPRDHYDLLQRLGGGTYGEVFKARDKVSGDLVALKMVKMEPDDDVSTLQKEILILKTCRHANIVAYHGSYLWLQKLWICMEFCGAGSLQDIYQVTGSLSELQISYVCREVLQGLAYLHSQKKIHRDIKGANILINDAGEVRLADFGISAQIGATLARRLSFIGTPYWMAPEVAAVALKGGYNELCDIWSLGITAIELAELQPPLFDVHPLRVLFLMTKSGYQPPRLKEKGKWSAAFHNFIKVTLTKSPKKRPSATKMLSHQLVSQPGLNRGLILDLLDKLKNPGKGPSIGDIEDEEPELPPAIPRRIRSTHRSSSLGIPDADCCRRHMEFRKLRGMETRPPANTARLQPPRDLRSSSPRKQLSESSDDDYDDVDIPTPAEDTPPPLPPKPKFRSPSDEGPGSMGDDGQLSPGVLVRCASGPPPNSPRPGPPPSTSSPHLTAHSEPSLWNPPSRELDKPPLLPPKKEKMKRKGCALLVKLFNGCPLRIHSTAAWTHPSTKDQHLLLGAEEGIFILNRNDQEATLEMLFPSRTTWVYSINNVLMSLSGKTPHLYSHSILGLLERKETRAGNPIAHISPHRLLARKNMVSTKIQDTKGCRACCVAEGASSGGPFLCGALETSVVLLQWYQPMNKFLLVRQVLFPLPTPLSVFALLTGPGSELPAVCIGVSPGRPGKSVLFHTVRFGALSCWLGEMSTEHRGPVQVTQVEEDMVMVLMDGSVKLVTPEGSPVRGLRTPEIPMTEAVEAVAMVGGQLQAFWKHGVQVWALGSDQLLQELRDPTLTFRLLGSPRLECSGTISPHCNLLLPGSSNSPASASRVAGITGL
Summary of the method: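 Untreated enzyme (0.1-15 nM) was incubated with 1.5 μM fluorescent peptide and 20-1000 μM ATP (apparent Km or 1 mM) in HEPES pH 7.5, MgCl2, DTT, Brij 35 at 25° C. for 60-180 min, with 1% DMSO and a 10-point 4-fold compound series. After an EDTA stop, product/substrate peptide peak ratio was read by mobility shift.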

| SMILES | EC50 ([1]; Homo sapiens, T-cell, 24 h) [nM] | IC50 [2] [nM] | EC50 [1] [nM] |
| --- | --- | --- | --- |
| C[C@H](C[C@@H](C)S(C)(=O)=O)Oc1ncc(C(C)(C)N)c2cc(Nc3ccc4c(n3)[C@@H](C)[C@H](C)OC4=O)ncc12 [Compound 51] | 25 | 0.15 |  |
| CCS(=O)(=O)[C@H](C)C[C@@H](C)Oc1ncc([C@H](N)C2CC2)c2cc(Nc3ccc4c(n3)[C@@H](C)C(C)(C)OC4=O)ncc12 (single isomer, unassigned) [Compound 138] | 38 | 0.3 |  |
| COC[C@@](C)(N)c1cnc(O[C@H]2C[C@H](CS(C)(=O)=O)C2)c2cnc(Nc3ccc4c(n3)[C@@H](C)C(C)(C)OC4=O)cc12 [Compound 139] | 74 | 0.36 |  |
| CC[C@@](C)(N)c1cnc(O[C@H]2C[C@@H](S(C)(=O)=O)C2)c2cnc(Nc3ccc4c(n3)[C@@H](C)[C@H](C)OC4=O)cc12 [Compound 38] | 5 | 0.12 |  |
| COC[C@@](C)(N)c1cnc(O[C@H]2C[C@@H](S(=O)(=O)C3CC3)C2)c2cnc(Nc3ccc4c(n3)[C@@H](C)C(C)(C)OC4=O)cc12 [Compound 145] | 32 | 0.21 |  |
| C[C@@H]1OC(=O)c2ccc(Nc3cc4c(C(C)(C)N)cnc(O[C@H]5C[C@@H](S(=O)(=O)N(C)C)C5)c4cn3)nc2[C@H]1C [Compound 81] | 18 | 0.1 |  |
| CC[C@@](C)(N)c1cnc(O[C@H](C)CCS(C)(=O)=O)c2cnc(Nc3ccc4c(n3)[C@@H](C)C(C)(C)OC4=O)cc12 [Compound 94] | 26 | 0.14 |  |
| C[C@@H]1c2nc(Nc3cc4c(C(C)(C)N)cnc(O[C@H]5C[C@@H](CS(C)(=O)=O)C5)c4cn3)ccc2C(=O)OC1(C)C (single isomer, unassigned) [Compound 76] | 25 | 0.07 |  |
| C[C@@H]1c2nc(Nc3cc4c(C(C)(C)N)cnc(N[C@H]5C[C@@H](S(C)(=O)=O)C5)c4cn3)ccc2C(=O)OC1(C)C [Compound 28] | 250 | 0.14 |  |
| CC[C@@H](N)c1cnc(O[C@H]2C[C@@H](S(C)(=O)=O)C2)c2cnc(Nc3ccc4c(n3)[C@@H](C)C(C)(C)OC4=O)cc12 (single isomer, unassigned) [Compound 176] | 69 | 0.23 |  |
| CC[C@@](C)(N)c1cnc(O[C@H](C)C[C@@H](C)S(C)(=O)=O)c2cnc(Nc3ccc4c(n3)[C@H](C)COC4=O)cc12 (single isomer, unassigned) [Compound 48] |  | 0.59 | 55 |
| C[C@@H]1OC(=O)c2cc(Nc3cncc4c(OCCCS(C)(=O)=O)ncc(C(C)(C)N)c34)cnc2[C@H]1C [Compound 7] | 11 | 0.28 |  |
| CCS(=O)(=O)[C@H]1C[C@@H](Oc2ncc([C@](C)(N)COC)c3cc(Nc4ccc5c(n4)[C@@H](C)C(C)(C)OC5=O)ncc23)C1 [Compound 141] | 15 | 0.15 |  |
| CC[C@@](C)(N)c1cnc(O[C@H](C)C[C@@H](C)S(C)(=O)=O)c2cnc(Nc3ccc4c(n3)[C@@H](C)[C@@H](C)OC4=O)cc12 (single isomer, unassigned) [Compound 152] | 11 | 0.29 |  |
| CCC[C@@](C)(N)c1cnc(O[C@H](C)CCS(C)(=O)=O)c2cnc(Nc3ccc4c(n3)[C@@H](C)C(C)(C)OC4=O)cc12 (single isomer, unassigned) [Compound 126] | 21 | 0.17 |  |
| CCC[C@@H](N)c1cnc(O[C@H]2C[C@@H](S(=O)(=O)CC)C2)c2cnc(Nc3ccc4c(n3)[C@@H](C)C(C)(C)OC4=O)cc12 (single isomer, unassigned) [Compound 115] | 59 | 0.33 |  |
| CC[C@@](C)(N)c1cnc(O[C@H]2C[C@@H](S(C)(=O)=O)C2)c2cnc(Nc3ccc4c(n3)[C@@H](C)C(C)(C)OC4=O)cc12 [Compound 78] | 7 | 0.14 |  |
| CC[C@@](C)(N)c1cnc(O[C@H](C)C[C@@H](C)S(C)(=O)=O)c2cnc(Nc3ccc4c(n3)CC(C)(C)OC4=O)cc12 [Compound 87] | 29 | 0.13 |  |
| COC[C@@](C)(N)c1cnc(O[C@H]2C[C@@H](CS(C)(=O)=O)C2)c2cnc(Nc3ccc4c(n3)[C@@H](C)C(C)(C)OC4=O)cc12 [Compound 140] | 33 | 0.33 |  |

| SMILES | EC50 ([1]; Homo sapiens, T-cell, 24 h) [nM] | IC50 [2] [nM] | EC50 [1] [nM] |
| --- | --- | --- | --- |
| CC[C@@](C)(N)c1cnc(O[C@H](C)CCS(C)(=O)=O)c2cnc(Nc3ccc4c(n3)[C@@H](C)[C@@H](C)OC4=O)cc12 (single isomer, unassigned) [Compound 153] | 25 | 0.27 |  |
| CC[C@@](C)(N)c1cnc(O[C@H](C)CCS(C)(=O)=O)c2cnc(Nc3ccc4c(n3)[C@@H](C)[C@H](C)OC4=O)cc12 [Compound 52, (7S,8R)-2-((5-((R)-2-Aminobutan-2-yl)-8-(((R)-4-(methylsulfonyl)butan-2-yl)oxy)-2,7-naphthyridin-3-yl)amino)-7,8-dimethyl-7,8-dihydro-5H-pyrano[4,3-b]pyridin-5-one] | 9 | 0.13 |  |
| C[C@@H]1OC(=O)c2ccc(Nc3cc4c(C(C)(C)N)cnc(O[C@H]5C[C@@H](S(C)(=O)=O)C5)c4cn3)nc2[C@H]1C [Compound 13] | 15 | 0.12 |  |
| CCC[C@@](C)(N)c1cnc(O[C@H](C)CCS(C)(=O)=O)c2cnc(Nc3ccc4c(n3)[C@@H](C)[C@H](C)OC4=O)cc12 (single isomer, unassigned) [Compound 86] | 26 | 0.2 |  |
| C[C@H](C[C@@H](C)S(C)(=O)=O)Oc1ncc(C(C)(C)N)c2cc(Nc3ccc4c(n3)[C@@H](C)C(C)(C)OC4=O)ncc12 [Compound 91] | 24 | 0.22 |  |
| CC[C@@](C)(N)c1cnc(O[C@H]2C[C@@H](S(=O)(=O)CC)C2)c2cnc(Nc3ccc4c(n3)[C@@H](C)C(C)(C)OC4=O)cc12 [Compound 117] | 6 | 0.05 |  |
| CC[C@@](C)(N)c1cnc(O[C@H](C)CCS(C)(=O)=O)c2cnc(Nc3ccc4c(n3)[C@H](C)COC4=O)cc12 (single isomer, unassigned) [Compound 16] | 44 | 0.31 |  |
| C[C@@H]1c2nc(Nc3cc4c(C(C)(C)N)ccc(O[C@H]5C[C@@H](S(C)(=O)=O)C5)c4cn3)ccc2C(=O)OC1(C)C [Compound 27] | 15 | 0.08 |  |
| COC[C@@](C)(N)c1cnc(O[C@H]2C[C@@H](S(C)(=O)=O)C2)c2cnc(Nc3ccc4c(n3)C3(CC3)C(C)(C)OC4=O)cc12 [Compound 162] | 32 | 0.3 |  |
| COC[C@@](C)(N)c1cnc(O[C@H](C)C[C@@H](C)S(C)(=O)=O)c2cnc(Nc3ccc4c(n3)[C@@H](C)C(C)(C)OC4=O)cc12 [Compound 144] | 39 | 0.23 |  |
| CC[C@@](C)(N)c1cnc(O[C@@H](C)CCS(C)(=O)=O)c2cnc(Nc3ccc4c(n3)[C@@H](C)C(C)(C)OC4=O)cc12 [Compound 95] | 52 | 0.08 |  |
| CC[C@@](C)(N)c1cnc(O[C@H](C)C[C@@H](C)S(=O)(=O)CC)c2cnc(Nc3ccc4c(n3)[C@@H](C)C(C)(C)OC4=O)cc12 [Compound 143] | 16 | 0.15 |  |
| C[C@H](CCS(C)(=O)=O)Oc1ncc(C(C)(C)N)c2cc(Nc3ccc4c(n3)C3(CC3)[C@@H](C)OC4=O)ncc12 (single isomer, unassigned) [Compound 29] | 24 | 0.29 |  |
| CCS(=O)(=O)CC[C@@H](C)Oc1ncc(C(C)(C)N)c2cc(Nc3ccc4c(n3)[C@@H](C)C(C)(C)OC4=O)ncc12 (single isomer, unassigned) [Compound 98] | 67 | 0.23 |  |
| C[C@@H]1c2nc(Nc3cc4c(C(C)(C)N)cnc(OCCC[S@](C)(=N)=O)c4cn3)ccc2C(=O)OC1(C)C (single isomer, unassigned) [Compound 168] | 35 | 0.26 |  |
| C[C@H]1[C@H](Oc2ncc(C(C)(C)N)c3cc(Nc4ccc5c(n4)[C@@H](C)C(C)(C)OC5=O)ncc23)C[C@@H]1S(C)(=O)=O (single isomer, unassigned) [Compound 69] | 15 | 0.1 |  |
| CCC[C@@](C)(N)c1cnc(O[C@H](C)CCS(C)(=O)=O)c2cnc(Nc3ccc4c(n3)CC(C)(C)OC4=O)cc12 (single isomer, unassigned) [Compound 85] | 85 | 0.37 |  |
| CC[C@@](C)(N)c1cnc(O[C@@H]2C[C@H](S(C)(=O)=O)[C@H]2C)c2cnc(Nc3ccc4c(n3)[C@@H](C)[C@H](C)OC4=O)cc12 (single isomer, unassigned) [Compound 150] | 14 | 0.32 |  |
| C[C@@H]1COC(=O)c2ccc(Nc3cc4c(C(C)(C)N)cnc(O[C@H]5C[C@@H](S(C)(=O)=O)C5)c4cn3)nc21 (single isomer, unassigned) [Compound 6] | 7 | 0.18 |  |
